Data on five molecules can be found in paper PMC2994023 (Interdisciplinary Toxicology, 2010).

One series relates to rat hepatic microsomes. Kind of series: Metabolism of N-(2-methoxyphenyl)hydroxylamine by hepatic microsomes of control (uninduced) rats, HPLC of metabolites. The series is classed as in vitro ADME. To be noted: 1.0 mM substrate. The method, then:
(§1) The study was conducted in accordance with the Regulations for the Care and Use of Laboratory Animals (311/1997, Ministry of Agriculture, Czech Republic), which complies with Declaration of Helsinki. Microsomes from livers of ten untreated rats and three rabbits were prepared by the procedure described previously (Stiborová et al., [1988]). Microsomes from the livers of ten male Wistar rats pretreated with β-NF (Stiborová et al., [1988]) were isolated as described (Stiborová et al., [1988]; [1995]), those pretreated with phenobarbital (PB) as reported by Hodek et al. ([1988]), and those pretreated with ethanol were isolated using a procedure described by Yang et al. ([1985]). Protein concentrations in the microsomal fractions were assessed using the bicinchoninic acid protein assay with bovine serum albumin as a standard (Wiechelman et al., [1988]). The concentration of CYP was estimated according to Omura and Sato ([1964]), by measuring the absorption of the complex of reduced CYP with carbon monoxide. […] The activity of NADPH:CYP reductase in rat hepatic microsomes was measured according to Sottocasa et al. ([1967]) using cytochrome c as substrate (i.e., as NADPH:cytochrome c reductase).

The nature of series [1]: Incubation of N-(2-methoxyphenyl)hydroxylamine without hepatic microsomal enzymes or without NADPH (spontaneous conversion). As to conditions: pH 7.4, without hepatic microsomal enzymes or without NADPH. The series is classed as physicochemical. The protocol: At pH 7.4, used for microsomal incubations, their spontaneous formation was negligible.
In series [2] the test system is rat hepatic microsomes enriched with CYP2E1. Description: Metabolism of N-(2-methoxyphenyl)hydroxylamine by hepatic microsomes of rats pre-treated with ethanol. Format: in vitro ADME. The method, then: as §1
The next series relates to Sacchromyces cerevisiae. As to conditions: ref Brennan and Schiestl ([1997]); cited from earlier work.
For a further series, the system named is NADPH:CYP reductase. Description: NADPH:CYP reductase activity in hepatic microsomes of induced rats (cytochrome c as substrate). As to conditions: hepatic microsomes of rats induced with the agent. The method, then: as §1
The next series deals with CYP. Description: CYP concentration in hepatic microsomes of induced rats (CO complex of reduced CYP). To be noted: hepatic microsomes of rats induced with the agent. The protocol: as §1

As for `COc1ccccc1NO` [N-(2-methoxyphenyl)hydroxylamine], the “formation of metabolite M1” value with rat hepatic microsomes was “negligible”. Also, the “spontaneous formation of metabolite M1 and o-aminophenol” value in series [1] is given as “negligible”. For the same molecule, the “change of levels of o-anisidine versus control microsomes” value in series [2] is listed as “decreased”.
For the molecule `Nc1ccccc1O` [o-aminophenol], the “result in the deletion recombination assay” value in the series on Sacchromyces cerevisiae is recorded as “positive”.
For the molecule `CCC1(c2ccccc2)C(=O)NC(=O)NC1=O` [PB, phenobarbital], the “NADPH:CYP reductase activity in hepatic microsomes” value (shortened to “NADPH:CYP reductase activity”) with NADPH:CYP reductase was determined as 0.325 µmol/min/mg protein. Further, the “CYP content of hepatic microsomes” value with CYP came to 2.7 nmol CYP/mg protein.
As for `O=c1cc(-c2ccccc2)oc2ccc3ccccc3c12` [β-NF, β-naphthoflavone], the “NADPH:CYP reductase activity” value with NADPH:CYP reductase was found to be 0.199 µmol/min/mg protein. Further, in the series on CYP, the “CYP content of hepatic microsomes” value was found to be 1.3 nmol CYP/mg protein.
As to `CCO` [ethanol], the “NADPH:CYP reductase activity” value in the series on NADPH:CYP reductase was determined as 0.201 µmol/min/mg protein. Moreover, in the series on CYP, the “CYP content of hepatic microsomes” value came to 1.8 nmol CYP/mg protein.
